Experimental data from US20240327354A1, “GRAM-NEGATIVE BACTERIA EFFLUX PUMP INHIBITORS” (INSTITUT NATIONAL DE LA SANTÉ ET DE LA RECHERCHE MÉDICALE, priority 2021, published 2024).
Where a name gives a salt, the structure may show the parent alone.

Assays:
A. baumannii LMG = test: Assay 4: boosting of antibiotic activity by EPI example 37 in A. baumannii; format: cell-based, Acinetobacter baumannii; details: MIC of the named antibiotic boosted by 100 μM example 37
Text: (§1) Escherichia coli BW25113 (CGSC 7636) and its derivatives E. coli ΔtolC (JW5503-1, ΔtolC732::kan, CGSC 11430), E. coli ΔacrA (JW0452-3, ΔacrA748::kan, CGSC 11843) and E. coli ΔacrB (JW0451-2, ΔacrB747::kan, CGSC 8609) were obtained from E. coli Genetic Stock Center (CGSC, New Haven, Connecticut) and originated from the Keio Collection (Baba T et al, Mol Sys Biol, 2006). Klebsiella pneumoniae (LMG 2095/ATCC 13883) and K. pneumoniae (ATCC43816), Pseudomonas aeruginosa (PAO1), Acinetobacter baumannii (LMG 1025, ATCC 17978), were obtained from ATCC or BCCM/LMG Bacteria Collection. All bacteria were grown and tested in cation-adjusted Mueller-Hinton broth (CAMHB; BD Difco) at 37° C. For conservation, log phase bacteria were frozen (−80° C.) in CAMHB supplemented with 15% glycerol.
(§2) Measurement of the Impact of EPI Example 37 on the Boosting of Antibiotic Activity in E. coli, A. baumannii, K. pneumoniae and P. aeruginosa.
(§3) Bacterial suspensions were then prepared in CAMHB from a growing pre-culture, (E. coli [OD600=0.001], A. baumannii [OD600=0.001], K. pneumoniae [OD600=0.001] and P. aeruginosa [OD600=0.001]), and added to the microplate using a ViaFill. Microplate containing bacterial cultures were then grown (5 h or 24 h, 37° C.) and bacterial viability determined by either resazurin reduction or OD600.

K. pneumoniae ATCC43816 = test: Assay 4: boosting of antibiotic activity by EPI example 37 in K. pneumoniae ATCC43816; format: cell-based, Klebsiella pneumoniae; details: MIC of the named antibiotic boosted by 100 μM example 37
Text: as §1, §2, §3

E. coli BW25113 [1] = test: Assay 4: boosting of antibiotic activity by EPI example 37 in E. coli; format: cell-based, Escherichia coli; details: MIC of the named antibiotic boosted by 100 μM example 37
Text: as §1, §2, §3

P. aeruginosa PAO1 = test: Assay 4: boosting of antibiotic activity by EPI example 37 in P. aeruginosa; format: cell-based, Pseudomonas aeruginosa; details: MIC of the named antibiotic boosted by 100 μM example 37
Text: as §1, §2, §3

K. pneumoniae ATCC13883 = test: Assay 4: boosting of antibiotic activity by EPI example 37 in K. pneumoniae ATCC13883; format: cell-based, Klebsiella pneumoniae
Text: as §1, §2, §3

E. coli BW25113 [2] = test: Assay 1: growth inhibition of E. coli by sub-inhibitory pyridomycin in combination with examples (resazurin reduction); format: cell-based, Escherichia coli; details: read-out: EC50 on E. coli with 8 μg/mL of pyridomycin, 8 μg/mL pyridomycin, 5 h, 37° C.
How it was run: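 E. coli BW25113 at OD600 0.0004–0.001 was grown in CAMHB at 37 °C. Viability was read by resazurin reduction fluorescence (Ex 530/Em 590 nm). EC50 is the concentration preventing 50% of resazurin turnover relative to untreated bacteria.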

[3] = tested on: A. baumannii LMG 1025 (ATCC 17978); test: Assay 3: growth inhibition of A. baumannii by sub-inhibitory novobiocin in combination with examples (resazurin reduction); format: cell-based, Acinetobacter baumannii; details: 5 μg/mL novobiocin, 5 h or 24 h, 37° C., read-out: EC90 on A. baumannii with 5 μg/mL of novobiocin
Text: as §1
Measurement of growth Inhibition of A. baumannii strains by sub Inhibitory concentrations of novobiocin In combination with examples 1-137
For the evaluation of the dose dependent activity of examples 1-137, their ability to boost the antibacterial activity of sub-inhibitory concentrations novobiocin was determined. Briefly, A. baumannii LMG 1025 (ATCC 17978) were diluted from frozen or growing stocks to an OD600 of 0.001 in CAMHB. The bacterial suspension was then used as such (no—antibiotic control to evaluate EPI activity), or spiked with novobiocin at a final concentration of 5 μg/mL. Bacteria were then added to microplates carrying serial dilutions of the compounds examples 1-137, and incubated for (5 h or 24 h, 37° C.). Bacterial viability was evaluated using the resazurin reduction assay, and measured by fluorescence (POLARstar Omega, BMG Labtech: Ex: 530 nm Em: 590 nm). […] were defined as the compound concentration that prevented 90% of resazurin turnover compared to the non-treated bacteria.

[4] = tested on: A. baumannii LMG 1025 (ATCC 17978); test: Assay 2: growth inhibition of A. baumannii by sub-inhibitory chloramphenicol in combination with examples (resazurin reduction); format: cell-based, Acinetobacter baumannii; details: read-out: EC90 on A. baumannii with 10 μg/mL of chloramphenicol, 10 μg/mL chloramphenicol, 5 h or 24 h, 37° C.
How it was run: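 Acinetobacter baumannii LMG 1025 (ATCC 17978), taken from frozen or growing stocks, was diluted to an OD600 of 0.001 in cation-adjusted Mueller-Hinton broth. The suspension was supplemented with 10 μg/mL chloramphenicol, a sub-inhibitory level. It was added to microplates holding serial compound dilutions and incubated 5 h or 24 h at 37° C. Viability was read by resazurin reduction fluorescence (Ex 530 nm, Em 590 nm), and the effective concentration was set at 90% inhibition of resazurin turnover relative to untreated bacteria.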

[5] = tested on: A. baumannii LMG 1025 (ATCC 17978); test: as above; format: cell-based; details: Acinetobacter baumannii; antibiotic alone, no EPI
[6] = tested on: A. baumannii LMG 1025 (ATCC 17978); test: Assay 3: growth inhibition of A. baumannii by sub-inhibitory novobiocin in combination with examples (resazurin reduction); format: cell-based; details: Acinetobacter baumannii; antibiotic alone, no EPI
[7] = MIC of the named antibiotic boosted by 100 μM example 37

| SMILES | K. pneumoniae ATCC43816 Fold Boosted MIC By 100 μM example 37 (K. pneumoniae ATCC43816) | E. coli BW25113 Fold Boosted MIC By 100 μM example 37 (E. coli BW25113 [1]) | K. pneumoniae ATCC13883 Fold Boosted MIC By 100 μM example 37 (K. pneumoniae ATCC13883; [7]) | further results |
| --- | --- | --- | --- | --- |
| CC(=O)NC[C@H]1CN(c2ccc(N3CCOCC3)c(F)c2)C(=O)O1 [Linezolid (LIN), Linezolid] | *** (*** = 8 fold +) | *** (*** = 8 fold +) | *** (*** = 8 fold +) | A. baumannii LMG Fold Boosted MIC By 100 μM example 37 (A. baumannii LMG): * (* = 2-3.9 fold); P. aeruginosa PAO1 Fold Boosted MIC By 100 μM example 37 (P. aeruginosa PAO1): * (* = 2-3.9 fold) |
| CCN1CCN(C(=O)N[C@@H](C(=O)N[C@@H]2C(=O)N3[C@@H]2SC(C)(C)[C@@H]3C(=O)O)c2ccccc2)C(=O)C1=O [Piperacillin (PPC), Piperacillin] | * (* = 2-3.9 fold) | ** (** = 4-7.9 fold) | * (* = 2-3.9 fold) | – |
| CNCc1cccc(-c2ccc3nc(N4CCNCC4)c(Cl)cc3c2)c1 [Example 109, 1-[3-(3-chloro-2-piperazin-1-yl-6-quinolyl)phenyl]-N-methyl-methanamine;dihydrochloride] | – | – | – | EC50 (E. coli BW25113 [2]): < 5 µM; EC90 [3]: 5 to 100 µM; EC90 [4]: 5 to 100 µM |
| [H]/N=C(/N)N[C@H]1[C@H](O)[C@@H](O)[C@H](O[C@@H]2O[C@@H](C)[C@](O)(C=O)[C@H]2O[C@@H]2O[C@@H](CO)[C@H](O)[C@@H](O)[C@@H]2NC)[C@@H](N/C(N)=N\[H])[C@@H]1O [Streptomycin (STP), Streptomycin] | – | – | – | P. aeruginosa PAO1 Fold Boosted MIC By 100 μM example 37 (P. aeruginosa PAO1): * (* = 2-3.9 fold) |
| CN(C)[C@@H]1C(O)=C(C(N)=O)C(=O)[C@@]2(O)C(O)=C3C(=O)c4c(O)cccc4[C@@](C)(O)[C@H]3C[C@@H]12 [Tetracycline (TET), Tetracycline] | – | * (* = 2-3.9 fold) | * (* = 2-3.9 fold) | – |
| O=C(N[C@H](CO)[C@H](O)c1ccc([N+](=O)[O-])cc1)C(Cl)Cl [chloramphenicol] | * (* = 2-3.9 fold) | *** (*** = 8 fold +) | ** (** = 4-7.9 fold) | A. baumannii LMG Fold Boosted MIC By 100 μM example 37 (A. baumannii LMG): * (* = 2-3.9 fold); MIC90 [5]: 25 to 100 µg/mL |
| Oc1cc(Cl)ccc1Oc1ccc(Cl)cc1Cl [Triclosan (TRC), Triclosan] | *** (*** = 8 fold +) | * (* = 2-3.9 fold) | *** (*** = 8 fold +) | A. baumannii LMG Fold Boosted MIC By 100 μM example 37 (A. baumannii LMG): * (* = 2-3.9 fold) |
| CC[C@H]1OC(=O)[C@H](C)[C@@H](O[C@H]2C[C@@](C)(OC)[C@@H](O)[C@H](C)O2)[C@H](C)[C@@H](O[C@@H]2O[C@H](C)C[C@H](N(C)C)[C@H]2O)[C@](C)(O)C[C@@H](C)C(=O)[C@H](C)[C@@H](O)[C@]1(C)O [Erythromycin (ERY), Erythromycin] | ** (** = 4-7.9 fold) | ** (** = 4-7.9 fold) | *** (*** = 8 fold +) | – |
| CC(=O)O[C@H]1C[C@@]2(C)[C@@H](C[C@@H](O)[C@H]3[C@@]4(C)CC[C@@H](O)[C@@H](C)[C@@H]4CC[C@@]32C)/C1=C(\CCC=C(C)C)C(=O)O [Fusidic Acid (FUS), Fusidic Acid] | ** (** = 4-7.9 fold) | *** (*** = 8 fold +) | – | K. pneumoniae ATCC13883 Fold Boosted MIC By 100 μM example 37 (K. pneumoniae ATCC13883; 100 μM example 37): 2-4 fold |
| CO/N=C(\C(=O)N[C@@H]1C(=O)N2C(C(=O)[O-])=C(C[N+]3(C)CCCC3)CS[C@H]12)c1csc(N)n1 [Cefepime (CEP), Cefepime] | * (* = 2-3.9 fold) | – | – | – |
| Cc1onc(-c2ccccc2)c1C(=O)N[C@@H]1C(=O)N2[C@@H]1SC(C)(C)[C@@H]2C(=O)O [Oxacillin (OXA), Oxacillin] | *** (*** = 8 fold +) | *** (*** = 8 fold +) | *** (*** = 8 fold +) | P. aeruginosa PAO1 Fold Boosted MIC By 100 μM example 37 (P. aeruginosa PAO1): * (* = 2-3.9 fold) |
| CO[C@@H]1[C@@H](OC(N)=O)[C@@H](O)[C@H](Oc2ccc3c(O)c(NC(=O)c4ccc(O)c(CC=C(C)C)c4)c(=O)oc3c2C)OC1(C)C [novobiocin] | ** (** = 4-7.9 fold) | *** (*** = 8 fold +) | *** (*** = 8 fold +) | MIC90 [6]: 12.5 µg/mL |
| CC[C@H]1OC(=O)[C@H](C)[C@@H](O[C@H]2C[C@@](C)(OC)[C@@H](O)[C@H](C)O2)[C@H](C)[C@@H](O[C@@H]2O[C@H](C)C[C@H](N(C)C)[C@H]2O)[C@](C)(O)C[C@@H](C)CN(C)[C@H](C)[C@@H](O)[C@]1(C)O [Azithromycin (AZY), Azithromycin] | ** (** = 4-7.9 fold) | – | ** (** = 4-7.9 fold) | P. aeruginosa PAO1 Fold Boosted MIC By 100 μM example 37 (P. aeruginosa PAO1): *** (*** = 8 fold +) |
| CC1(C)S[C@@H]2[C@H](NC(=O)[C@H](N)c3ccccc3)C(=O)N2[C@H]1C(=O)O [Ampicillin (AMP), Ampicillin] | – | * (* = 2-3.9 fold) | – | – |
| O=C(O)c1cn(C2CC2)c2cc(N3CCNCC3)c(F)cc2c1=O [Ciprofloxacin (CIP), Ciprofloxacin] | *** (*** = 8 fold +) | *** (*** = 8 fold +) | *** (*** = 8 fold +) | – |
